Entries after “also recorded” stand apart in the source; their conditions may differ.
Columns and labels:
[1] = tested on: healthy controls (HC) and MDD participants; experiment: Cardiovascular safety: blood pressure and heart rate after intravenous DMT; type: in vivo, human
Procedure: (§1) Blood pressure was measured at baseline and 5, 10, 15, 20, 30, 45, 60, and 120 minutes after drug administration. Heart rate and pulse oximetry were measured continuously. Subjective drug effects were measured 60 min before, as well as 30 and 120 min after drug administration.

[2] = tested on: healthy controls (HC) and MDD participants; experiment: Adverse events of the dosing sessions; type: in vivo, human
Excerpt: Given the intensity and brevity of DMT effects, participants were allowed a mostly uninterrupted experience with psychiatrists utilizing a non-directive and supportive approach. Participants were asked how they were feeling at the same time points as the physiological recordings; no psychotherapy was provided. Rescue medications for psychological distress (lorazepam and risperidone) and hypertension (labetalol) were available. Prior to discharge, a field sobriety test and mini-mental status examination were conducted to confirm return to baseline.

[3] = tested on: healthy controls (HC) and MDD participants; experiment: Psychedelic effects, 23-item Psychedelic Effects Visual Analog Scale; type: in vivo, human; details: for Peak change in VAS psychedelic composite score: mean (SD)
Procedure: as §1
(§2) Both the VAS Psychedelic effects, and PSI were measured before dose administration, shortly after resolution of effects, and again near time of discharge. Subjects were instructed to retroactively rate the effects during the peak effects, given that they might not be able to accurately assess and report effects while immersed in the peak effects.

[4] = tested on: healthy controls (HC) and MDD participants; experiment: Psychotomimetic States Inventory (PSI); type: in vivo, human
Procedure: as §2, with “effects. […] In addition to day-after dosing follow up, subjects were contacted 1, 2, and 12 weeks after completion of the last dosing session to follow up on safety and wellbeing.” for “effects.”

[5] = tested on: healthy controls (HC) and MDD participants; experiment: In session VAS anxiety and depression; type: in vivo, human; details: for Peak change in VAS depression: MDD participants only; for Peak change in VAS depression / Peak change in VAS anxiety scale: mean (SD); for Peak change in VAS anxiety scale: all participants
Procedure: as §2, with “effects. […] In addition to day-after dosing follow up, subjects were contacted 1, 2, and 12 weeks after completion of the last dosing session to follow up on safety and wellbeing.” for “effects.”

[6] = tested on: healthy controls (HC) and MDD participants; experiment: Drug desirability / reinforcement and abuse liability measures; type: in vivo, human; details: for monetized value of drug effects (scale from 0-100 dollars): mean (SD)
Procedure: VAS measures of tolerability, willingness to pay for the experience, and likelihood to use DMT were analyzed similarly. […] HAM-D for each dose was compared to baseline using paired t-tests. […] For 23-item VAS psychedelic effects, multiple comparison correction was performed using false discovery rate (FDR) correction for all measures in order to increase statistical power and minimize […] errors (Benjamini and Hochberg, Journal of the Royal Statistical Society. Series B (Methodological) Vol. 57, No. 1 (1995), pp. 289-300). For PSI effects, Bonferroni correction was utilized.

[7] = Serum DMT levels after intravenous DMT hemifumarate; type: in vivo, human; details: IV 0.1 and 0.3 mg/kg; 30 and 60 min after administration
Procedure: FIGS. 19A-19B depict serum DMT levels in healthy control (FIG. 19A) and depression subjects (FIG. 19B) with intravenous administration of DMT hemifumarate, in accordance with some embodiments. Y-axis: serum DMT levels (ng/dl); X-axis: 60 min before DMT administration; and 30 and 60 min after DMT administration. […] Solid line (0.1 mg/kg) and dotted line (0.3 mg/kg).
Referring to FIGS. 19A-19B, the present study further reports for the first-time dose-related serum DMT levels in MDD subjects who received 0.1 and […] of IV DMT. The findings in healthy controls are mostly consistent with other studies and PK models (Callaway et al., J Ethnopharmacol. 1999 June; 65(3):243-56; Gallimore and Strassman, Front. Pharmacol., 14 Jul. 2016). […] Given the increased rigor of the assay for DMT utilized in this study, it is unlikely that the variability observed in MDD subjects is spurious. It may be important to note that while DMT's acute effects had mostly resolved by +30 min time point, it is conceivable that peripheral concentration may differ from the central site of action.

[8] = target: serotonin 5-HT2A receptors (Homo sapiens, UniProt P28223); details: literature; cited from earlier work
healthy volunteers = details: literature, cited from earlier work
[9] = tested on: healthy controls (HC) and MDD participants; experiment: Overall tolerability of test day, visual analog scale; details: for overall tolerability (0=intolerable to 100=well-tolerated): mean (SD)

Sequence of serotonin 5-HT2A receptors (P28223 whole entry): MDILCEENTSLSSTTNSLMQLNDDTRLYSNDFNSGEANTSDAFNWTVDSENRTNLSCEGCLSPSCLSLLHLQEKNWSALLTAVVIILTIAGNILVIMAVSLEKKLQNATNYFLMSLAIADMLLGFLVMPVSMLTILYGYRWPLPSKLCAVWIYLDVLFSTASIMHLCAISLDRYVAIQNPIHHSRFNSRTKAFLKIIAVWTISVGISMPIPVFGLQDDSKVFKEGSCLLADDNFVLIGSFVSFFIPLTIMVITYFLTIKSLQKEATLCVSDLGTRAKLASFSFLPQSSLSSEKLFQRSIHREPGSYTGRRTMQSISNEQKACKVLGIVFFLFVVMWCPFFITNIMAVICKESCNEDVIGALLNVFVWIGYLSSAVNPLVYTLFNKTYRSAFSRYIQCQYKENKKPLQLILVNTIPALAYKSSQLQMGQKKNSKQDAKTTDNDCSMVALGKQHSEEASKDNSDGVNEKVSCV

## CN(C)CCc1c[nH]c2ccccc12 [DMT hemifumarate, N,N-dimethyltryptamine hemifumarate]
Water solubility
  water solubility (in words): water-soluble

## CN(C)CCc1c[nH]c2ccccc12 [DMT, N,N-dimethyltryptamine]
[1]; 0.1 and 0.3 mg/kg IV, no significant dose or dose-time effects
  effect on systolic and diastolic blood pressure, and heart rate: increased
[1]; post-hoc analyses
  time point with significant increases in heart rate relative to baseline: +5 minute
[2]; 0.3 mg/kg IV, measured continuously
  oxygen saturation during the serious adverse event: 100%
[2]; 0.1 and 0.3 mg/kg IV
  severity of adverse events (in words): mostly mild
[2]; all dosing sessions
  clinically relevant psychotic symptoms: None of the participants
[2]; asymptomatic bradycardia and hypotension in a MDD participant after 0.3 mg/kg
  number of serious adverse events: one
[2]; following 0.1 mg/kg, symptoms lasted 10 minutes
  symptoms in one healthy subject with anticipatory anxiety: lightheadedness, and pallor
[2]; person, 5 minutes after 0.3 mg/kg IV, dropped from 54
  heart rate in the serious adverse event: 42 beats per minute
[2]; person, 5 minutes after 0.3 mg/kg IV, dropped from 108/60
  blood pressure in the serious adverse event: 71/42
[3]; 0.1 mg/kg session
  Peak change in VAS psychedelic composite score: 13.16 (SD 11.91)
[3]; 0.3 mg/kg dose
  Peak change in VAS psychedelic composite score: 55.83 (SD 23.89)
[3]; 0.3 vs 0.1 mg/kg
  Hedge's g, VAS psychedelic composite score dose difference: 2.2
[3]; 95% CI 33.30 to 52.03, p<0.0001
  Peak change in VAS psychedelic composite score, difference between doses: 42.67
[3]; FDR correction, q=0.05
  number of the 23 VAS psychedelic items with significant dose-related differences: 16
[3]; IV
  duration of acute effects / resolution after injection: 20 to 30 min
[3]; IV push
  time by which acute psychedelic effects completely subsided: ≤ 30 min
  time of peak of acute psychedelic effects after dosing: 5 to 10 min
[4]; 0.1 mg/kg session, mean (SD)
  Mean peak change in Psychotomimetic States Inventory (PSI) scale total score: 7.33 (SD 7.62)
[4]; 0.3 mg/kg session
  Mean peak change in Psychotomimetic States Inventory (PSI) scale total score: 31.67 (16.57)
[4]; 0.3 vs 0.1 mg/kg
  Hedge's g, PSI total score dose difference: 1.89
[4]; 95% CI 12.74 to 35.94, p=0.001
  PSI total score peak change, difference between doses: 24.33
[5]; 95% CI −14.30 to 68.53, p=0.26
  Peak change in VAS anxiety, difference between doses: 27.11
[5]; 95% CI −41.47 to 57.47, p=0.92
  Peak change in VAS depression, difference between doses: 8.00
[5]; 0.1 mg/kg session
  Peak change in VAS depression: 6.83 (SD 28.94)
  Peak change in VAS anxiety scale: 2.56 (SD 31.8)
[5]; 0.3 mg/kg session
  Peak change in VAS depression: 14.83 (SD 37.79)
  Peak change in VAS anxiety scale: 29.67 (SD 39.96)
[6]; 0.1 mg/kg session
  monetized value of drug effects (scale from 0-100 dollars): 25.56 (SD 29.07) dollars
[6]; 0.3 mg/kg session
  monetized value of drug effects (scale from 0-100 dollars): 24.78 (SD 33.36) dollars
[6]; 95% CI −16.74 to 13.62, p=0.90
  willingness to use DMT, difference between doses: −1.56
[6]; 95% CI −32.38 to 33.94, p=0.89
  monetized value of drug effects, difference between doses: −0.78
[6]; intravenous
  abuse potential (in words): low abuse potential
[7]
  serum DMT levels in MDD subjects compared with healthy controls (in words): can have higher serum DMT levels; also recorded: greater variability
[8]
  activity at serotonin 5-HT2A receptors (in words): agonist activity
Healthy volunteers; doses ranging from 0.05-0.4 mg/kg
  tolerability in healthy controls (in words): well-tolerated
Healthy volunteers; healthy volunteers
  time to emergence of effects after intravenous administration: ≤ 2 min
Healthy volunteers; intravenous, healthy volunteers
  dose above which psychedelic effects emerge: higher than 0.2 mg/kg
Healthy volunteers; intravenous
  time to full resolution of effects: about 30 minutes
Water solubility
  water solubility (in words): not water soluble
[9]; 0.1 mg/kg IV dose session
  overall tolerability (0=intolerable to 100=well-tolerated): 89.80 (SD 12.95)
[9]; 0.3 mg/kg IV dose session
  overall tolerability (0=intolerable to 100=well-tolerated): 71.11 (SD 24.52)
[9]; 0.3 vs 0.1 mg/kg, 95% CI −32.81 to −2.75, p=0.026
  overall tolerability, difference between dose sessions: −17.78
[9]; IV, HC and MDD participants
  tolerability (in words): tolerated by both HC (n=3) and MDD participants (n=7); also recorded: well tolerated by both MDD patients and HC individuals

From patent US20230346718A1, “METHOD OF TREATING, AMELIORATING AND/OR […]” (YALE UNIVERSITY, priority 2022, published 2023)
